In patent publication EP0102404A1, “Novel polycyclic fused pyrazole compounds useful as antiinflammatory agents and preparation thereof” (STERLING DRUG INC., priority 1982, dated 1984):

Columns and labels:
Format in all cases: in vivo
Mature female rats = test: Endocrine profile (thymus, adrenal, body weight, food consumption) after oral medication for 2 weeks; details: compared with the controls
Experimental: The test procedures used to determine the biological activities of the compounds of the invention were carried out as follows: • Endocrine Profile: Mature female rats with an average body weight of 202 g and a body weight range of 15 g or less were medicated orally with test compound for 2 weeks. The test compound was prepared as a solution or suspension in 1% gum tragacanth or 0.75% methyl cellulose. On the day following the last medication, the rats were killed and the thymus and adrenal of each rat were removed, cleaned, and weighed. Body weights and food consumptions were also recorded.

Male rats = test: Anti-inflammatory activity (a-tocopherol pouch test)
Experimental: Male rats which weighed 120 g were selected for testing. A rapid subcutaneous injection of 25 mL of air was made between the scapulae of each rat. […] The test compound was administered in daily oral doses for 7 days beginning on the day of pouch formation. The compound to be tested was suspended in 1% gum tragacanth. Twenty-four hours after the last medication, the pouches were dissected free, and the fluid volume was measured.

[1] = system: Mature male rats, bilaterally adrenalectomized; test: Glycogenic activity (liver glycogen deposition test); details: for liver glycogen deposition: adrenalectomized male rats, vehicle 1.75 + 0.04 mg/g
From the text: Glycogenic Activity: Mature male rats were bilaterally adrenalectomized 5 days prior to the test. These rats were medicated orally with the test compound for 5 days. Seven hours after the last medication, the rats (which have been fasted overnight) were anesthetized with sodium pentobarbital and a portion of one lobe of the liver was removed and frozen on dry ice for subsequent glycogen determination.

CCOC(=O)C1(C(=O)OCC)CCC=C2C1CCC1=Cc3c(cnn3-c3ccc(F)cc3)CC12C (stereo not drawn) [Compound II (R = CH2CH3), Diethyl 8-(4-fluorophenyl)-2,3,4,4a,5,6,11,11a-octahydro-11a-methyl-8H-phenanthro[2,3-c]pyrazole-4,4-dicarboxylate]
reduction in adrenal weight (Mature female rats; 100 mg/kg): 47%
reduction in body weight gain (Mature female rats; 100 mg/kg): 186%
reduction in thymus weight (Mature female rats; 100 mg/kg): 80%
activity in the a-tocopherol pouch test (Male rats; 100 mg/kg, daily oral doses for 7 days, male rats): inactive

CC(=O)C1CC=C2C(CCC3=Cc4c(cnn4-c4ccc(F)cc4)CC32C)C1C(C)=O (single isomer, unassigned) [Compound I (R = CH3), 1,1'-[8-(4-Fluorophenyl)-2,3,4,4a,5,6,11,11a-octahydro-11a-methyl-8H-phenanthro[2,3-c]pyrazole-3,4-diyl]bis[ethanone]]
reduction in adrenal weight (Mature female rats; 5 mg/kg): 40%
reduction in body weight gain (Mature female rats; 5 mg/kg): 80%
reduction in weight of the thymus (Mature female rats; 5 mg/kg): 59%
ED50 (Male rats; Rattus norvegicus, 168 h, daily oral doses for 7 days, male rats, inhibition of liquid exudate): 23 mg/kg
anti-inflammatory activity by the a-tocopherol pouch test (Male rats; rats, result in words): anti-inflammatory activity
liver glycogen deposition ([1]; 9 mg/kg/day x 5, oral): 9.42 + 0.65 mg/g of tissue
liver glycogen deposition ([1]; 27 mg/kg/day x 5, oral): 25.48 + 3.39 mg/g of tissue
oral glucocorticoid activity by the liver glycogen deposition test ([1]; rats, oral, result in words): oral glucocorticoid activity
